22 compounds from the Kinase Knowledgebase extract (Sharma et al. 2016) can be followed below.

Several values for one entry are separate records, joined by “and”; a condition that tells them apart may be missing. Equal entries are not always repeated.

One test deals with CDK2 (human) (UniProt P24941). The test is described as follows: Enzyme Assay.
Conditions: not given
In the case of `CC(C)n1cnc2c(NCc3ccc(-c4ccccc4)cc3)nc(NC[C@H](C)NC(=O)OC(C)(C)C)nc21`, the IC50 was 4000 nM and 11000 nM.

Consider `CN1CC[C@@H](c2c(O)cc(O)c3c(=O)cc(C4CCCCC4Cl)oc23)[C@@H](O)C1` (stereo partly specified), for which the IC50 is 200 nM and 60 nM.

Consider `CCn1cnc2c(NCc3ccc(Cl)cc3)nc(N[C@H]3CCCC[C@H]3N)nc21`, for which the IC50 stood at 1000 nM.

In the next test the target is CDK2 (human) (UniProt P24941). The test is described as follows: Enzyme Assay.
Conditions: not given
The source holds these as a separate data set.
Turning to `CC(C)n1cnc2c(NCc3ccc(-c4ccccc4)cc3)nc(NC[C@H](C)NC(=O)OC(C)(C)C)nc21`, the IC50 is 3000 nM and 1000 nM.

Compound `CCn1cnc2c(NCc3ccc(Cl)cc3)nc(N[C@H]3CCCC[C@H]3N)nc21` registered an IC50 of 100 nM.

The next test has as its target CDK2;CDK1 (human) (UniProt P24941). The test is described as follows: Cell-Based Assay. Conditions: hela-s3.
Take `CC(C)n1cnc2c(NCc3ccc(-c4ccccc4)cc3)nc(N3CCC(N)C3)nc21` (stereo unspecified): the GI50 worked out at 500 nM. In other words, the sub-micromolar range.

For the compound `CC(C)n1cnc2c(NCc3ccc(-c4ccccc4)cc3)nc(NCCN)nc21`, the GI50 was 200 nM and 400 nM.

`COC(=O)N[C@H]1CC[C@H](Nc2nc(NCc3ccc(-c4ccccc4)cc3)c3ncn(C(C)C)c3n2)CC1`: the GI50 is 700 nM and 400 nM and 300 nM.

Turning to `CC(C)n1cnc2c(NCc3ccc(-c4ccccc4)cc3)nc(N3CCC(C(N)=O)CC3)nc21`, the GI50 was 5000 nM and 3000 nM.

In turn, `CC(C)n1cnc2c(NCc3ccc(-c4ccccc4)cc3)nc(N[C@H]3CC[C@H](N(CC4CC4)CC4CC4)CC3)nc21` gave a GI50 of 30 nM.

As for `CC(C)n1cnc2c(NCc3ccc(-c4ccccc4)cc3)nc(N[C@H]3CC[C@H](N4C(=O)CCC4=O)CC3)nc21`, the GI50 is 300 nM and 200 nM and 500 nM.

For the compound `CC(C)n1cnc2c(NCc3ccc(-c4ccccc4)cc3)nc(N[C@H]3CC[C@H](NS(C)(=O)=O)CC3)nc21`, the GI50 was 200 nM and 100 nM.

`CC(C)n1cnc2c(NCc3ccc(-c4ccccc4)cc3)nc(N[C@H]3CC[C@H](NS(=O)(=O)C(F)(F)F)CC3)nc21`: the GI50 was 3000 nM and 2000 nM and 4000 nM.

Regarding `CCN[C@H]1CC[C@H](Nc2nc(NCc3ccc(-c4ccccc4)cc3)c3ncn(C(C)C)c3n2)CC1`, the GI50 was 2000 nM and 900 nM.

`CC(C)n1cnc2c(NCc3ccc(-c4ccccc4)cc3)nc(NC[C@H](C)NC(=O)OC(C)(C)C)nc21`: the GI50 is 300 nM and 100 nM.

Regarding `CCC(=O)N[C@H]1CC[C@H](Nc2nc(NCc3ccc(-c4ccccc4)cc3)c3ncn(C(C)C)c3n2)CC1`, the GI50 is 200 nM and 400 nM and 300 nM.

For the compound `CC(=O)NCCNc1nc(NCc2ccc(-c3ccccc3)cc2)c2ncn(C(C)C)c2n1`, the GI50 was 3000 nM and 4000 nM.

The compound `CC(C)n1cnc2c(NCc3ccc(-c4ccccc4)cc3)nc(N[C@H]3CC[C@H](NCC4CC4)CC3)nc21` gave a GI50 of 300 nM.

In the case of `CC(C)n1cnc2c(NCc3ccc(-c4ccccc4)cc3)nc(NCCCN)nc21`, the GI50 is 300 nM and 600 nM.

For `CCN(C(C)=O)[C@H]1CC[C@H](Nc2nc(NCc3ccc(-c4ccccc4)cc3)c3ncn(C(C)C)c3n2)CC1`, the GI50 was 600 nM and 800 nM.

Regarding `COc1cccc(-c2ccc(CNc3nc(N[C@H]4CC[C@H](NC(C)=O)CC4)nc4c3ncn4C(C)C)cc2)c1`, the GI50 is 300 nM and 400 nM.

The compound `CC(C)n1cnc2c(NCc3ccc(-c4ccccc4)cc3)nc(N[C@H]3CC[C@H](NC(=O)C4CC4)CC3)nc21` yielded a GI50 of 300 nM.

For `CC(=O)N[C@H]1CC[C@H](Nc2nc(NCc3ccc(-c4cccc(C)c4)cc3)c3ncn(C(C)C)c3n2)CC1`, the GI50 was 400 nM and 200 nM.

In the case of `CCn1cnc2c(NCc3ccc(Cl)cc3)nc(N[C@H]3CCCC[C@H]3N)nc21`, the GI50 was found to be 3000 nM.

As to `CCCCN[C@H]1CC[C@H](Nc2nc(NCc3ccc(-c4ccccc4)cc3)c3ncn(C(C)C)c3n2)CC1`, the GI50 is 500 nM and 300 nM.

Regarding `CC(C)n1cnc2c(NCCc3ccc(-c4ccsc4)cc3)nc(N[C@H]3CC[C@H](NC(=O)OC(C)(C)C)CC3)nc21`, the GI50 is > 10000 nM and 7000 nM.
